Values joined by “and” are separate entries in the source; they are usually repeats but may differ in a detail not shown here. Equal entries are not always repeated.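 Exposure lasted 48 hours, with cells grown in 96-well plates and compounds tested at five concentrations. Abbreviation: GI50, concentration required for 50% inhibition of growth. TGI: concentration producing complete growth inhibition.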
The compounds below were run on MDA-MB-468 breast (assay: NCI tumour cell line growth inhibition, 48 h).

| Structure (SMILES) | GI50 | TGI |
| --- | --- | --- |
| Cn1cc(-c2cnc3ccc(NC(=O)Nc4ccc(F)c(Br)c4)cc3n2)cn1 | 1.41 µM | 3.86 µM |
| COc1cc(O)c2c(c1)/C=C/C[C@H](O)[C@H](O)C(=O)/C=C\C[C@H](C)OC2=O | 3.85 µM and 5.6 µM | 13.3 µM and 20.7 µM |
| COc1cc(/C=C/c2cc(/C=C/c3ccc(O)c(OC)c3)n(-c3ccccc3)n2)ccc1O | 0.271 µM | 0.908 µM |
| N#CSCC1CC(O)(c2ccccc2)C(c2ccccc2)C(c2ccc(Cl)cc2)O1 (centres undefined) | 1.44 µM | 2.85 µM |
| O=C1c2cccc(NCCN=Cc3cc(O)ccc3O)c2C(=O)c2c(NCCN=Cc3cc(O)ccc3O)cccc21 | 0.584 µM | 2.37 µM |
| COc1ccc(C2=NN(C(=O)c3cc(OC)c(OC)c(OC)c3)C(c3ccc(C#N)cc3)C2)cc1OC (centres undefined) | 0.419 µM | 2.89 µM |
| COc1cc(/C=N/n2cnc3oc(-c4ccccc4)cc3c2=N)cc(CN2CCCC2)c1O | 2.01 µM | 5.08 µM |
| CC[CH2][Pb]([CH2]CC)([CH2]CC)[O]C(=O)C(F)(F)F | 0.0551 µM | 0.153 µM |
| Nc1ccn(C2O[C@H](CO)[C@@H](O)[C@@H]2O)c(=O)n1 (some centres undefined) | > 100 µM | > 100 µM |
| O=C(CI)NC1Oc2ccccc2-c2oc(=O)c(-c3ccccc3)cc21 (centres undefined) | 1.79 µM | 4.32 µM |
| NCC(=O)NS(=O)(=O)OC[C@H]1O[C@@H](n2cnc3c(N)ncnc32)[C@H](O)[C@@H]1O | 0.742 µM | 2.56 µM |
| COc1cccc(/C=N/NC(=O)c2ccccc2Nc2ccnc(C(F)(F)F)c2)c1O | 0.218 µM | 9.62 µM |
| CN(C)CCNC(=O)c1ccc(-c2nc3ccc4[nH]ncc4c3c3c2CCC3)cc1 | 0.448 µM | 1.49 µM |
| CC1=C(CCCNS(C)(=O)=O)C2=C(C)C3(CC3)[C@@](C)(O)C(=O)C2=C1 | 0.354 µM | 1.66 µM |
| CC1=C(C(=O)Nc2ccc3[nH]ncc3c2)C(c2ccc3ccccc3c2)CC(=O)N1 (centres undefined) | 13.9 µM | > 25 µM |
| O=[N+]([O-])/C=C\c1ccc(Cl)c(Cl)c1 | 1.79 µM | 3.76 µM |
| O=C1/C(=C/c2ccc(Br)cc2)C=C(c2ccccc2)N1CCc1ccccc1 | 1.27 µM | 7.8 µM |
| O=C1c2c(c3c4ccccc4n(CCCCCCBr)c3c3[nH]c4ccccc4c23)C(=O)N1O | 2.82 µM | 8.18 µM |
| Cc1ccc2c(c1)C(=O)/C(=C/c1ncc([N+](=O)[O-])n1C)O2 | 1.85 µM | 4.34 µM |
| O=C(Nc1ccc(N2CCNCC2)cc1)c1[nH]ncc1Nc1cc(Oc2ccccc2)ncn1 | 1.99 µM | 4.83 µM |
| CCNCCNc1cc(-c2ccc(C(=O)OC)cc2)c(C#N)c2nc3ccccc3n12 | 1.37 µM | 2.86 µM |
| C[C@]12CC[C@H](O)CC1=CC[C@@H]1[C@@H]2CC[C@]2(C)C(c3cccnc3)=CC[C@@H]12 | 26.9 µM | > 100 µM |
| Cn1c(N2NC(=O)C(N=Nc3ccc(S(N)(=O)=O)cc3)C2=O)nc(-c2ccco2)c(C#N)c1=O (centres undefined) | 1.61 µM | 6.73 µM |

| Structure (SMILES) | GI50 | TGI |
| --- | --- | --- |
| O=C(NCCOCCOCCNc1cccc2c1C(=O)N(C1CCCNC1=O)C2=O)c1cc2c(o1)C(=O)c1ccccc1C2=O (centres undefined) | 1.61 µM | 4.43 µM |
| COC(=O)CCCCN=Cc1c(O)c(O)c(C(C)C)c2cc(C)c(-c3c(C)cc4c(C(C)C)c(O)c(O)c(C=NCCCCC(=O)OC)c4c3O)c(O)c12 | 0.78 µM | 3.06 µM |
| COc1cccc(-c2cc(=O)c3cc(N(C)C)ccc3[nH]2)c1 | – | > 100 µM and 59.2 µM |
| COc1ccc2c(c1)c(-c1nc(-c3cn(C)c4ncccc34)cs1)cn2CCCN1CCCCC1 | 1.8 µM | 3.55 µM |
| COc1ccc2[nH]c(O)c(/C=c3/cc4c(c(-c5cc(OC)c(OC)c(OC)c5)n3)=Nc3ccccc3-4)c2c1 | 2.62 µM | 11.7 µM |
| O=c1oc2ccc(F)cc2c(=O)n1-c1ccc(F)cc1F | 2.76 µM | 7.78 µM |
| O=C(O)CCCCC(CCSCc1ccccc1)SCc1ccccc1 (centres undefined) | 45.1 µM | > 91.4 µM |
| CCCCC(=O)OCC1OC(n2cnc3c(=S)nc[nH]c32)C(OC(=O)CCCC)C1OC(=O)CCCC (centres undefined) | 0.215 µM | 1.52 µM |
| CCCCCc1ccc(S(=O)(=O)Nc2cccc(-c3csc(NC(=O)CCCCCN4CCN(C)CC4)n3)c2)cc1 | 1.79 µM | 3.46 µM |
| Cc1ccc(S(=O)(=O)N(CCOc2ccc(/C(N)=N/Cl)cc2)CCOc2ccc(/C(N)=N\Cl)cc2)cc1 | 3.98 µM | 21.4 µM |
| CCOc1cccc(/C=N/NC(=O)c2ccccc2Nc2ccnc(C(F)(F)F)c2)c1O | 0.271 µM | 9.28 µM |
| CN1CCN(Cc2ccc(NC(=O)c3cncc(C#Cc4cnc(N)c5ccc(C#N)cc45)c3)cc2C(F)(F)F)CC1 | 0.0608 µM | 0.627 µM |
| COc1cc(OC)cc(-c2ccc(-c3ccc(C(=N)N)o3)o2)c1 | 2.4 µM | 4.73 µM |
| COc1ccc(/C(=C2\O[C@@H]([C@H]3COC(C)(C)O3)[C@H]3OC(C)(C)O[C@@H]23)c2cc(OC)c(OC)c(OC)c2)cc1O | 14.5 µM | 34.1 µM |
| Cc1ccc(CS/C(=C\c2ccc([N+](=O)[O-])cc2)C(=O)c2ccc(F)cc2)cc1 | 3.41 µM | 16.4 µM |
| Oc1ccc(CSc2nnc(-c3cnccn3)n2-c2ccccc2)c2cccnc12 | 0.97 µM | > 20 µM |
| CCCCC/C(C=C(C#N)C#N)=C/c1ccccc1 | 10.2 µM | 27.2 µM |
| N#C/C(=C1C=C/C(=N/O)C(Br)=C/1)c1ccccc1 | 1.53 µM | 15 µM |
| CN(C)CCNc1cc(-c2ccccc2)nc2ccccc12 | 3.85 µM | 16.8 µM |
| Cc1c(F)c(N)c2c(=O)cc(-c3ccc(NC(=O)CN(C)C)c(F)c3)oc2c1F | 0.0577 µM | 0.394 µM |
| CNC(=O)OCc1c(COC(=O)NC)c(-c2ccc(Cl)c(Cl)c2)n2c1SCC2 | 0.264 µM | 1.27 µM |
| O=C(CN1CCOCC1)Nc1ccc(Cn2nnc3c2C(=O)c2nnn(Cc4ccc(NC(=O)CN5CCOCC5)cc4)c2C3=O)cc1 | 0.208 µM | 0.55 µM |

Source: PubChem BioAssay (NCI)
